Source: patent US9771430B2, “Method of treating a metabolic disorder induced by obesity in a subject in need thereof by administering MK2/3 inhibitors” (THE TRUSTEES OF COLUMBIA UNIVERSITY IN THE CITY OF NEW YORK, priority 2011, dated 2017)
Entries after “also recorded” stand apart in the source; their conditions may differ.

Tests used:
G6pc and Pck1 mRNA = G6pc and Pck1 mRNA (RT-qPCR) in primary mouse hepatocytes; assay type: cell-based; conditions: glucagon / forskolin
Method: FIG. 32A-E. Related to FIG. 26—p38. FIG. 32A Mice were fed ad libitum or fasted for 12 h. Liver phospho-p38, total p38, p-MK2, total MK-2, and β-actin were assayed by immunoblot. FIG. 32B WT HCs were serum-depleted overnight and then incubated for 5 h with 100 nm glucagon in serum-free media with or without SB202190; or glucagon was added to HCs from P38a^fl/fl mice treated with adeno-LacZ (control) or adeno-Cre. RNA was assayed for G6pc and Pck1 mRNA (*P<0.05; mean±S.E.M.). FIG. 32C HCs from fasting WT and Camk2g^−/− mice were assayed for p-p38, total p38, and β-actin. FIG. 32D WT mice were injected i.p. with 12.5 mg kg^−1 body weight of p38 inhibitor (SB202190) or vehicle control. 12 h later, the mice were injected with an additional dose of SB202190 and fasted overnight. The livers were assayed for nuclear FoxO1, nucleophosmin, p-MK2, total MK-2, and β-actin. The correlation between nuclear FoxO1 and p-MK2 band intensities is shown in the graph. FIG. 32E Adeno-GFP-FoxO1-transduced HCs were serum-depleted overnight, and then incubated for 5 h in serum-free media with SB202190 or vehicle (Veh) control. FoxO1 localization was assessed by indirect immunofluorescence (Bar, 10 μm; *P<0.05; mean±S.E.M.).
FIGS. 53A-B. MK-2 regulates hepatic FoxO1 subcellular localization and hepatic G6Pc and Pck1. FIG. 53A. Adeno-GFP-FoxO1-transduced HCs were serum-depleted overnight, and then incubated for 30 min in serum-free media with 2 uM MK-2 inhibitor or vehicle (Veh) control. FoxO1 localization was assessed by indirect immunofluorescence (Bar, […]; *P<0.005; mean±S.E.M.). FIG. 53B WT HCs were serum-depleted overnight and then incubated for 5 h with 100 nm glucagon in serum-free media with or without MK-2 inhibitor. RNA was assayed for G6pc and Pck1 mRNA (*P<0.005; mean±S.E.M.). MK-2 Inhibitor is from Calbiochem (cat#475864): 2-(2-Quinolin-3-ylpyridin-4-yl)-1,5,6,7-tetrahydro-4H-pyrrolo-[3,2-c]pyridin-4-one.
FIG. 69. MK-2 inhibitor suppresses forskolin-induced Pck1 and G6Pc induction in primary hepatocytes. Primary hepatocytes from WT mice were serum-depleted overnight and then pre-treated with 300 nM MK-2 inhibitor (compound 28) or vehicle for 1 h. Cells were then treated with 2 μM forskolin in serum-free media with or without the inhibitor for 4 h. RNA was assayed for G6pc and Pck1 mRNA by RT-qPCR. *, P<0.0001.
Primary mouse HCs were isolated from 8- to 12-week-old mice as described previously (Matsumoto et al., 2002). For most experiments, the HCs were serum-depleted overnight by incubation in medium containing 0.5% fetal calf serum and were then incubated for 5 h in serum-free media, with individual treatments noted in the figure legends. HCs were transduced with adenoviral constructs 12 h after plating, and experiments were conducted 24 h after transduction. Transfections with WT, 7A- and 9A-Foxo1 were carried out using jetPEI™-hepatocyte DNA transfection reagent (Polyplus-transfection, Inc.) according to manufacturer's instructions.
Immunoblot and RT-qPCR assays were performed as previously described (Timmins et al., 2009). Total RNA was extracted from HCs using the RNeasy kit (Qiagen). cDNA was synthesized from 2 μg total RNA using oligo (dT) and Superscript II (Invitrogen). Nuclear extraction from liver was performed using the Nuclear Extraction Kit from Panomics according to the manufacturer's instructions. […] Whether their origin is alternative splicing or post-translational modification remains to be determined.

CaMKII = CaMKII enzyme activity assay in primary mouse hepatocytes; assay type: cell-based; conditions: HCs, 100 nM glucagon, various times
Method: FIGS. 1A-J. Glucagon and fasting activates hepatic CaMKII. FIG. 1A. CaMKII enzyme activity was assayed in triplicate wells of primary mouse HCs stimulated with 100 nM glucagon (Gluc) or vehicle control (Veh) for the indicated times (*P<0.05 and **P<0.01 vs. Veh; mean±S.E.M.). FIGS. 1B-1J. Extracts of HCs or liver were probed for phospho-CaMKII, total CaMKII, and β-actin by immunoblot assay. FIG. 1B. HCs were incubated with […] glucagon for the indicated times; FIG. 1C. Glucagon was added to HCs that were pre-treated for 1 h with vehicle control (Veh) or 5 μM BAPTA-AM; FIG. 1D. […]
CaMKII activity was assayed using a CaMKII assay kit from Promega according to the manufacturer's instructions. […] Next, [γ-32P]ATP and CaMKII biotinylated peptide substrate were added to the lysate and after incubation for 10 minutes at 30° C., the [32P]-phosphorylated substrate was separated from the residual [32P]ATP using SAM biotin capture membrane and quantitated using a scintillation counter.
CaMKII activity was assayed using a CaMKII assay kit from Promega according to the manufacturer's instructions. […] After incubation for 10 min at 30° C., the [^32P]-phosphorylated substrate was separated from the residual [^32P]ATP using SAM biotin-capture membrane and then quantitated using a scintillation counter. […]

C1CCC[C@H]2CCCN3CC[C@@H](CCCCCC[C@@H]4CCCN5CC[C@@H](CC1)O[C@@H]45)O[C@@H]23 [Xestospongin C]
induction of the gluconeogenic program (G6pc and Pck1 mRNA): blocked

glucagon: hormone used to stimulate hepatocytes and mice
CaMKII activity (CaMKII): increased steadily as a function of time; also recorded: increases as a function of time
